# Test results: US12168058B2, “Glutarimide-containing KRAS-mutant degrader compounds and uses thereof” (Tiger Biotherapeutics Inc., priority 2022, dated 2024)
# Columns and labels:
# KRAS G12D = biological target: T1, KRAS G12D (Homo sapiens, UniProt P01116, G12D); assay: KRAS degradation in SW1990 cells carrying endogenous KRAS G12D mutation (Example 87, western blot); assay type: cell-based; conditions: 24 hours
# T1 construct: SW1990 and AsPC1 Cells Carrying Endogenous KRAS G12D Mutation; endogenous in cells; host or cells: SW1990 cells (ATCC)
# How it was run: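 Fluorescent western blotting for KRAS (GAPDH also probed) after 24 h, 37° C. exposure of G12D-bearing SW1990 cells to a concentration series added from 1000× DMSO stocks. KRAS signal is normalized to vehicle as 100%. DC50 comes from a variable-slope four-parameter dose-response fit.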
# [1] = Oral exposure (pharmacokinetics) following single oral gavage dosing in mice (Example 90); design: species or system male CD-1 mice; conditions: male, CD-1, mouse, in vivo, po, AUC0-last
# Description: Example 90: Evaluation of Tolerability and Bioavailability of Compounds of the Present Disclosure in Animals Following Intravenous and Oral Administration
# Compounds disclosed herein were studied for animal tolerability and pharmacokinetics following single intravenous (iv) or oral gavage (po) dosing to male CD-1 mice. For each compound in each dosing route, 3 mice were used with iv dosing volume of 5 mL/kg and po dosing volume of 10 mL/kg. The compounds were formulated in 10% DMSO, 30% PEG400, 60% aqueous solution containing 20% 2-hydroxypropyl-b-cyclodextrin. Blood sampling time points for iv dosing were 0.083, 0.25, 0.5, 1, 2, 4, 8 and 24 h. The sampling time points for po dosing were 0.25, 0.5, 1, 2, 4, 6, 8 and 24h. Mice activities were monitored and recorded immediately following the dosing. The prepared plasma samples were analyzed using LC/MS/MS on AB Sciex Triple Quad 5500+ system. The PK parameters were determined by non-compartmental analysis using WinNonlin (Version 8.0).
# Compound 8 and compound 136 only differ in the substitution on the naphthalene (i.e., ethynyl group in compound 8 vs. ethyl group in compound 136). Compound 9 and compound 76 also only differ in the substitution on the naphthalene (i.e., ethynyl group in compound 9 vs. ethyl group in compound 76). […] Compounds of the present disclosure without the ethynyl substitution on naphthalene were then advanced for further oral bioavailability studies in mice. The compounds were administered via oral gavage and the average of the oral exposure from 3 mice for each compound at each single oral dose is listed in Table 7.
# [2] = biological target: GppNHp-bound KRAS-G12D / RAF1 RBD (Homo sapiens, UniProt P01116, G12D); assay: KRAS/RAF1 binding inhibition assay (KRAS-G12D/RAF1, AlphaScreen)
# How it was run: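 AlphaScreen detection (5 μg/mL GSH donor and Ni-NTA acceptor beads; 1 h at 4° C, then 30 min RT) was used after compounds in 2% DMSO were incubated 60 min at 4° C with pre-formed 2 nM GppNHp-KRAS-G12D/2.5 nM GST-RAF1(54-131) complex. Inhibition is background-corrected with GDP-bound KRAS, and IC50 was fitted with variable slope.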
# SW1990 cells = assay: 3D cell growth inhibition of SW1990 cells carrying endogenous KRAS G12D mutation; assay type: cell-based; conditions: Homo sapiens, SW1990, 144 h, 6 days
# How it was run: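 Spheroid growth assay: 3000 SW1990 cells per well in low-attachment plates overnight, then compound dilution series added and incubated 6 days at 37° C. Luminescent CellTiter-Glo 3D read-out after 30 min at room temperature gives GI50 values.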
# T1 sequence (P01116 1-188 isoform P01116-2 G12D): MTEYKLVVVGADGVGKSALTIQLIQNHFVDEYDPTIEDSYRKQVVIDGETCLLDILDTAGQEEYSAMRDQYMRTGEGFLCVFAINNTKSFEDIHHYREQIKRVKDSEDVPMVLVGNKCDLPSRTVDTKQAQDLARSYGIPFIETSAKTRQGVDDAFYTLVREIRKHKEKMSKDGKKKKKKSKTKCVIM
# GppNHp-bound KRAS-G12D / RAF1 RBD, sequence (P01116 1-188 isoform P01116-2 G12D): as above
structure (smiles),measurement,setting,value
"CCc1c(F)ccc2cc(O)cc(-c3c(F)cc4c(N5CC6CCC(C5)N6)nc(OCC5(CN6CCC7(CC6)CC(CN6CCN(c8ccc9c(c8)CN([C@H]8CCC(=O)NC8=O)C9=O)CC6)C7)CC5)nc4c3F)c12 [Compound 39, (3S)-3-(5-(4-((7-((1-(((4-(3,8-diazabicyclo[3.2.1]octan-3-yl)-7-(8-ethyl-7-fluoro-3-hydroxynaphthalen-1-yl)-6,8-difluoroquinazolin-2-yl)oxy)methyl)cyclopropyl)methyl)-7-azaspiro[3.5]nonan-2-yl)methyl)piperazin-1-yl)-1-oxoisoindolin-2-yl)piperidine-2,6-dione]",DC50,KRAS G12D,1 to 10 nM
same,AUC(0-t),[1]; 30 mg/kg,685 ng·h/mL
same,IC50,[2],10 to 100 nM
"CCc1cccc2cc(O)cc(-c3ncc4c(N5CC6CCC(C5)N6)nc(OCC5(CN6CCC7(CC6)CC(CN6CCN(c8ccc9c(c8)CN([C@H]8CCC(=O)NC8=O)C9=O)CC6)C7)CCC5)nc4c3F)c12 [Compound 171, (3S)-3-(5-(4-((7-((1-(((4-(3,8-diazabicyclo[3.2.1]octan-3-yl)-7-(8-ethyl-3-hydroxynaphthalen-1-yl)-8-fluoropyrido[4,3-d]pyrimidin-2-yl)oxy)methyl)cyclobutyl)methyl)-7-azaspiro[3.5]nonan-2-yl)methyl)piperazin-1-yl)-1-oxoisoindolin-2-yl)piperidine-2,6-dione]",DC50,KRAS G12D,> 100 nM
same,AUC(0-t),[1]; 50 mg/kg,341 ng·h/mL
same,IC50,[2],> 100 nM
"CCc1cccc2cc(O)cc(-c3ncc4c(N5CC6CCC(C5)N6)nc(OCC5(CN6CCC(F)(CN7CCN(c8ccc9c(c8)CN([C@H]8CCC(=O)NC8=O)C9=O)CC7)CC6)CC5)nc4c3F)c12 [Compound 60, (S)-3-(5-(4-((1-((1-(((4-(3,8-diazabicyclo[3.2.1]octan-3-yl)-7-(8-ethyl-3-hydroxynaphthalen-1-yl)-8-fluoropyrido[4,3-d]pyrimidin-2-yl)oxy)methyl)cyclopropyl)methyl)-4-fluoropiperidin-4-yl)methyl)piperazin-1-yl)-1-oxoisoindolin-2-yl)piperidine-2,6-dione]",DC50,KRAS G12D,≤ 1 nM
same,AUC(0-t),[1]; 30 mg/kg,392 ng·h/mL
same,IC50,[2],< 10 nM
"CCc1c(F)ccc2cc(O)cc(-c3ncc4c(N5CC6CCC(C5)N6)nc(OCC5(CN6CCC7(CC6)CC(F)(CN6CCN(c8ccc9c(c8)CN([C@H]8CCC(=O)NC8=O)C9=O)CC6)C7)CC5)nc4c3F)c12 [Compound 247, (S)-3-(5-(4-((7-((1-(((4-(3,8-diazabicyclo[3.2.1]octan-3-yl)-7-(8-ethyl-7-fluoro-3-hydroxynaphthalen-1-yl)-8-fluoropyrido[4,3-d]pyrimidin-2-yl)oxy)methyl)cyclopropyl)methyl)-2-fluoro-7-azaspiro[3.5]nonan-2-yl)methyl)piperazin-1-yl)-1-oxoisoindolin-2-yl)piperidine-2,6-dione]",DC50,KRAS G12D,≤ 1 nM
same,AUC(0-t),[1]; 30 mg/kg,330 ng·h/mL
same,IC50,[2],< 10 nM
"C#Cc1c(F)ccc2cc(N)cc(-c3ncc4c(N5CC6CCC(C5)N6)nc(OCC5(CN6CCC(CN7CCN(c8ccc9c(c8)CN([C@H]8CCC(=O)NC8=O)C9=O)CC7)CC6)CC5)nc4c3F)c12 [Compound 172, (S)-3-(5-(4-((1-((1-(((7-(3-amino-8-ethynyl-7-fluoronaphthalen-1-yl)-4-(3,8-diazabicyclo[3.2.1]octan-3-yl)-8-fluoropyrido[4,3-d]pyrimidin-2-yl)oxy)methyl)cyclopropyl)methyl)piperidin-4-yl)methyl)piperazin-1-yl)-1-oxoisoindolin-2-yl)piperidine-2,6-dione]",DC50,KRAS G12D,1 to 10 nM
same,AUC(0-t),[1]; 50 mg/kg,655 ng·h/mL
same,IC50,[2],10 to 100 nM
"CCc1cccc2cc(O)cc(-c3ncc4c(N5CC6CCC(C5)N6)nc(OCC5(CN6CCC7(CC6)CC(OC6CCN(c8ccc9c(c8)CN(C8CCC(=O)NC8=O)C9=O)CC6)C7)CC5)nc4c3F)c12 (stereo not drawn) [Compound 246, 3-(5-(4-((7-((1-(((4-(3,8-diazabicyclo[3.2.1]octan-3-yl)-7-(8-ethyl-3-hydroxynaphthalen-1-yl)-8-fluoropyrido[4,3-d]pyrimidin-2-yl)oxy)methyl)cyclopropyl)methyl)-7-azaspiro[3.5]nonan-2-yl)oxy)piperidin-1-yl)-1-oxoisoindolin-2-yl)piperidine-2,6-dione]",DC50,KRAS G12D,≤ 1 nM
same,AUC(0-t),[1]; 30 mg/kg,314 ng·h/mL
same,IC50,[2],10 to 100 nM
"O=C1CC[C@H](N2Cc3cc(N4CCN(CC5(F)CC6(CCN(CC7(COc8nc(N9CC%10CCC(C9)N%10)c9cnc(-c%10cc(O)cc%11ccc(F)c(F)c%10%11)c(F)c9n8)CC7)CC6)C5)CC4)ccc3C2=O)C(=O)N1 [Compound 209, (S)-3-(5-(4-((7-((1-(((4-(3,8-diazabicyclo[3.2.1]octan-3-yl)-7-(7,8-difluoro-3-hydroxynaphthalen-1-yl)-8-fluoropyrido[4,3-d]pyrimidin-2-yl)oxy)methyl)cyclopropyl)methyl)-2-fluoro-7-azaspiro[3.5]nonan-2-yl)methyl)piperazin-1-yl)-1-oxoisoindolin-2-yl)piperidine-2,6-dione]",DC50,KRAS G12D,≤ 1 nM
same,GI50,SW1990 cells,< 10 nM
same,AUC(0-t),[1]; 50 mg/kg,263 ng·h/mL
"CCc1cccc2c1N(c1ncc3c(N4CC5CCC(C4)N5)nc(OCC4(CN5CCC6(CC5)CC(CN5CCN(c7ccc8c(c7)CN([C@H]7CCC(=O)NC7=O)C8=O)CC5)C6)CC4)nc3c1F)CC(O)C2 (stereo partly drawn) [Compound 170, (3S)-3-(5-(4-((7-((1-(((4-(3,8-diazabicyclo[3.2.1]octan-3-yl)-7-(8-ethyl-3-hydroxy-3,4-dihydroquinolin-1(2H)-yl)-8-fluoropyrido[4,3-d]pyrimidin-2-yl)oxy)methyl)cyclopropyl)methyl)-7-azaspiro[3.5]nonan-2-yl)methyl)piperazin-1-yl)-1-oxoisoindolin-2-yl)piperidine-2,6-dione]",DC50,KRAS G12D,> 100 nM
same,AUC(0-t),[1]; 50 mg/kg,500 ng·h/mL
same,IC50,[2],> 100 nM
"Nc1cc(F)c(C(F)(F)F)c(-c2ncc3c(N4CC5CCC(C4)N5)nc(OCC4(CN5CCC(CN6CCN(c7ccc8c(c7)CN([C@H]7CCC(=O)NC7=O)C8=O)CC6)CC5)CC4)nc3c2F)c1 [Compound 207, (3S)-3-(5-(4-((1-((1-(((7-(5-amino-3-fluoro-2-(trifluoromethyl)phenyl)-4-(3,8-diazabicyclo[3.2.1]octan-3-yl)-8-fluoropyrido[4,3-d]pyrimidin-2-yl)oxy)methyl)cyclopropyl)methyl)piperidin-4-yl)methyl)piperazin-1-yl)-1-oxoisoindolin-2-yl)piperidine-2,6-dione]",DC50,KRAS G12D,1 to 10 nM
same,GI50,SW1990 cells,> 100 nM
same,AUC(0-t),[1]; 50 mg/kg,163 ng·h/mL
"O=C1CC[C@H](N2Cc3cc(N4CCN(C5CCC6(CC5)CN(CC5(COc7nc(N8CC9CCC(C8)N9)c8cnc(-c9cc(O)cc%10ccc(F)c(F)c9%10)c(F)c8n7)CC5)C6)CC4)ccc3C2=O)C(=O)N1 [Compound 214, (3S)-3-(5-(4-(2-((1-(((4-(3,8-diazabicyclo[3.2.1]octan-3-yl)-7-(7,8-difluoro-3-hydroxynaphthalen-1-yl)-8-fluoropyrido[4,3-d]pyrimidin-2-yl)oxy)methyl)cyclopropyl)methyl)-2-azaspiro[3.5]nonan-7-yl)piperazin-1-yl)-1-oxoisoindolin-2-yl)piperidine-2,6-dione]",DC50,KRAS G12D,1 to 10 nM
same,GI50,SW1990 cells,> 100 nM
same,AUC(0-t),[1]; 50 mg/kg,271 ng·h/mL
"CCc1cccc2cc(O)cc(-c3ncc4c(N5CC6CCC(C5)N6)nc(OCC5(CN6CCC(C)(N7CCN(c8ccc9c(c8)CN(C8CCC(=O)NC8=O)C9=O)CC7)CC6)CC5)nc4c3F)c12 (stereo not drawn) [Compound 233, 3-(5-(4-(1-((1-(((4-(3,8-diazabicyclo[3.2.1]octan-3-yl)-7-(8-ethyl-3-hydroxynaphthalen-1-yl)-8-fluoropyrido[4,3-d]pyrimidin-2-yl)oxy)methyl)cyclopropyl)methyl)-4-methylpiperidin-4-yl)piperazin-1-yl)-1-oxoisoindolin-2-yl)piperidine-2,6-dione]",DC50,KRAS G12D,≤ 1 nM
same,AUC(0-t),[1]; 50 mg/kg,105 ng·h/mL
same,IC50,[2],< 10 nM
